According to patent US8383637B2, “2-amino-quinazoline derivatives useful as inhibitors of β-secretase (BACE)” (Jansssen Pharmaceutica N.V., priority 2004, dated 2013):
Read-outs that look alike come from different tables or passages of the source.

Target: T1, β-secretase(BACE) (Homo sapiens, UniProt P56817)
T1 construct: purchased Panvera
Test: BACE FS1% Inhibition Assay
Format: biochemical
Details: FS1 substrate; for % Inhibition (FS) 10 μM: 10 μM test compound
Outline: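 Human BACE (4 μg/mL working solution) preincubated 20 min at room temperature with compound, then FS1 substrate (300 μg/mL working solution) added and incubated 1 h at room temperature. Percent inhibition calculated at each compound concentration against blank and vehicle controls.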

T1 sequence (P56817 46-501): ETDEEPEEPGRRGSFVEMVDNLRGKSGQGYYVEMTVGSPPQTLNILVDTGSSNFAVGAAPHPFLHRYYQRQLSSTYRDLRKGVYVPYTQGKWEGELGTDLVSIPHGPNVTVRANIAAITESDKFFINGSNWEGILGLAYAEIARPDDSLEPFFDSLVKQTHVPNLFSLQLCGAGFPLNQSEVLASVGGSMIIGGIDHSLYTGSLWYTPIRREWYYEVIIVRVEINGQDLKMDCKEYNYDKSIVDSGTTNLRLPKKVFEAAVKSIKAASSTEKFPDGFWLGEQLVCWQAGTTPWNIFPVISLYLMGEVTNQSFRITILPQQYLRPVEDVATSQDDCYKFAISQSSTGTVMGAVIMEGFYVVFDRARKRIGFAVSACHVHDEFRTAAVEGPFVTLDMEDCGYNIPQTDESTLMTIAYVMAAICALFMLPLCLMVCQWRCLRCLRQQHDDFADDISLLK

Compound | % Inhibition (FS) 0.3 μM (0.3 μM test compound) | % Inhibition (FS) 1 μM (1 μM test compound) | % Inhibition (FS) 3 μM (3 μM test compound) | other results
COc1ccccc1-c1ccc2c(c1)CN([C@@H](CCC(=O)N(C)Cc1cc(-c3ccccc3)on1)C1CCCCC1)C(N)=N2 [Compound 719] |  |  |  | % Inhibition (FS) (0.3 μM test compound): 31%; % Inhibition (FS) (1 μM test compound): <30%; % Inhibition (FS) (3 μM test compound): 81%
NC1=Nc2ccc(-c3cccc(CO)c3)cc2CN1CCNC(=O)Cc1ccccc1 [Compound 599] | <30% | <30% | 65% | 
NC1=Nc2ccc(Oc3ccccc3)cc2CN1C(CC(=O)NC1CC2CCC1C2)C1CCCCC1 (stereo not shown) [Compound 400, 3-(2-Amino-6-phenoxy-4H-quinazolin-3-yl)-N-bicyclo[2.2.1]hept-2-yl-3-cyclohexyl-propionamide] |  |  |  | inhibition at 0.3 µM (0.3 μM test compound, read-out: % Inhibition (FS) 0.3 μM): < 30%; inhibition at 1 µM (1 μM test compound, read-out: % Inhibition (FS) 1 μM): < 30%; inhibition at 3 µM (3 μM test compound, read-out: % Inhibition (FS) 3 μM): 94%
CCCC=Cc1ccc2c(c1)CN(CCNC(=O)CCC)C(N)=N2 [Compound 571] | <30% | <30% | <30% | 
NC1=Nc2ccc(Oc3ccccc3)cc2CN1Cc1ocnc1C(=O)NC1CCCCC1 [Compound 640] | <30% | <30% | <30% | 
NC1=Nc2ccc(Oc3ccccc3)cc2CN1Cc1cccc(C(=O)N2CCCC3CCCCC32)c1 (stereo not shown) [Compound 212] | <30% | <30% | 32% | 
Cc1cccc(C)c1Oc1ccc2c(c1)CN(Cc1cccc(C(=O)N(C)C3CCCCC3)c1)C(N)=N2 [Compound 475] | <30% | <30% | <30% | 
CN(C(=O)CCC(C1CCOCC1)N1Cc2cc(Oc3ccccc3)ccc2N=C1N)C1CCC(C(=O)O)CC1 (stereo not shown) [Compound 743] |  |  |  | % Inhibition (FS) (0.3 μM test compound): 107%; % Inhibition (FS) (1 μM test compound): 125%; % Inhibition (FS) (3 μM test compound): 130%
CC(=O)c1ccccc1-c1ccc2c(c1)CN(Cc1cccc(C(=O)N(C)C3CCCCC3)c1)C(N)=N2 [Compound 323] | <30% | <30% | 45% | 
NC1=Nc2ccc(-c3ccc4ccccc4c3)cc2CN1CCNC(=O)C1CCCC1 [Compound 664] |  |  |  | % Inhibition (FS) (0.3 μM test compound): <30%; % Inhibition (FS) (1 μM test compound): <30%; % Inhibition (FS) (3 μM test compound): <30%
COc1ccc(Nc2ccc3c(c2)CN(Cc2cccc(C(=O)N(C)C4CCCCC4)c2)C(N)=N3)cc1 [Compound 434] | <30% | <30% | <30% | 
NC1=Nc2ccc(Oc3ccccc3)cc2CN1C(c1ccccc1)c1cccc(C(=O)N(C2CCCCC2)C2CCCCC2)c1 (stereo not shown) [Compound 132] |  |  | 54% | % Inhibition (FS) 10 μM: 118%
COc1ccccc1-c1ccc2c(c1)CN(CCNC(=O)CCN)C(N)=N2 [Compound 493] | <30% | <30% | 49% | 
COc1cccc(OC)c1Oc1ccc2c(c1)CN(Cc1cccc(C(=O)N(C)C3CCCCC3)c1)C(N)=N2 [Compound 477] | <30% | <30% | <30% | 
COc1ccccc1-c1ccc2c(c1)CN([C@@H](CCC(=O)N(C)Cc1csc(-c3ccccc3)n1)C1CCCCC1)C(N)=N2 [Compound 716] |  |  |  | % Inhibition (FS) (0.3 μM test compound): <30%; % Inhibition (FS) (1 μM test compound): <30%; % Inhibition (FS) (3 μM test compound): 72%
Cc1cc(C)cc(Oc2ccc3c(c2)CN(Cc2cccc(C(=O)N(C)C4CCCCC4)c2)C(N)=N3)c1 [Compound 228] | <30% | 49% | 40% | 
COc1ccccc1-c1cc2c(cc1F)CN(CCC(=O)NC1C3CC4CC(C3)CC1C4)C(N)=N2 (stereo not shown) [Compound 620] | <30% | <30% | 37% | 

Compound | % Inhibition (FS) 0.3 μM (0.3 μM test compound) | % Inhibition (FS) 1 μM (1 μM test compound) | % Inhibition (FS) 3 μM (3 μM test compound) | other results
NC1=Nc2ccc(C3=CCCCC3)cc2CN1CCNC(=O)C1CCC(C(F)(F)F)CC1 (stereo not shown) [Compound 704] |  |  |  | % Inhibition (FS) (0.3 μM test compound): <30%; % Inhibition (FS) (1 μM test compound): <30%; % Inhibition (FS) (3 μM test compound): <30%
NC1=Nc2ccc(Oc3ccccc3)cc2CN1CCNC(=O)CCc1ccccc1 [Compound 155] |  |  | <30% | % Inhibition (FS) 10 μM: 49%
CN(C(=O)CCC(C1CCCCC1)N1Cc2cc(Oc3ccccc3)ccc2N=C1N)C1CCC(C#N)CC1 (stereo not shown) [Compound 769] |  |  |  | % Inhibition (FS) (0.3 μM test compound): <30%; % Inhibition (FS) (1 μM test compound): 61%; % Inhibition (FS) (3 μM test compound): 107%
CC(C)CCC(=O)NCC(Cc1ccc(O)cc1)N1Cc2cc(Oc3ccccc3)ccc2N=C1N (stereo not shown) [Compound 615] | <30% | <30% | <30% | 
CN(C(=O)CCC(C1CCCCC1)N1Cc2cc(Oc3ccccc3)ccc2N=C1N)C1CCOCC1 (stereo not shown) [Compound 633] | <30% | 30% | 70% | 
CN(C(=O)c1cccc(CN2Cc3cc(-c4ccncc4)ccc3N=C2N)c1)C1CCCCC1 [Compound 168] | <30% | <30% | <30% | 
CC(c1ccccc1)c1ccc2c(c1)CN(Cc1cccc(C(=O)N(C)C3CCCCC3)c1)C(N)=N2 (stereo not shown) [Compound 332] | <30% | <30% | <30% | 
NC1=Nc2ccc(Oc3ccccc3)cc2CN1Cc1cccc(C(=O)N2CCC3CCCCC3C2)c1 (stereo not shown) [Compound 193] | <30% | 34% | 67% | 
CN(C(=O)c1cccc(CN2Cc3cc(Br)ccc3N=C2N)c1)C1CCCCC1 [Compound 802] |  |  |  | inhibition at 0.3 µM (0.3 μM test compound, read-out: % Inhibition (FS)): < 30%; inhibition at 1 µM (1 μM test compound, read-out: % Inhibition (FS)): < 30%; inhibition at 3 µM (3 μM test compound, read-out: % Inhibition (FS)): 50%
NC1=Nc2ccc(Oc3ccccc3)cc2CN1C1CCCN(C(=O)C2CCCCC2)C1 (stereo not shown) [Compound 611] | <30% | 36% | <30% | 
CCCCCC1CCC(C(=O)NCCN2Cc3cc(Oc4ccccc4)ccc3N=C2N)CC1 (stereo not shown) [Compound 182] | <30% | <30% | 38% | 
CC(CC(=O)NCCN1Cc2cc(-c3ccccc3Cl)ccc2N=C1N)C(F)(F)F (stereo not shown) [Compound 683] |  |  |  | % Inhibition (FS) (0.3 μM test compound): 64%; % Inhibition (FS) (1 μM test compound): 86%; % Inhibition (FS) (3 μM test compound): 102%
CN(C(=O)c1ncoc1CN1Cc2cc(Oc3ccccc3)ccc2N=C1N)C1CCCCC1 [Compound 641] | <30% | <30% | 48% | 
CCCCCOc1ccc2c(c1)CN(Cc1cccc(C(=O)N(C)C3CCCCC3)c1)C(N)=N2 [Compound 516] | <30% | <30% | <30% | 
CN(C(=O)c1cccc(CN2Cc3cc(Oc4ccccc4C(=O)N4CCCC4)ccc3N=C2N)c1)C1CCCCC1 [Compound 483] | <30% | <30% | <30% | 
CCCC(=O)NCCN1Cc2cc(-c3ccccc3F)ccc2N=C1N [Compound 645] | 67% | 57% | 91% | 
CC(=O)N1CCC(C(=O)NCCN2Cc3cc(-c4ccccc4Cl)ccc3N=C2N)CC1 [Compound 691] |  |  |  | % Inhibition (FS) (0.3 μM test compound): <30%; % Inhibition (FS) (1 μM test compound): <30%; % Inhibition (FS) (3 μM test compound): 51%
